In patent US12679822B2, “Alkenyl pyrimidine compound, preparation method therefor, and application thereof” (Hongyun Biotech Co., Ltd., priority 2020, dated 2026):

What was measured:
Format in all cases: cell-based
[1] = target: BaF3 cell lines stably transfected with kinase EGFR Del/T790M (Homo sapiens, UniProt P00533, T790M, cells depend on it, form not given); test: Growth inhibition of BaF3 cell line stably transfected with kinase EGFR Del/T790M (MTS); conditions: 48 h, read-out: growth inhibitory activity IC50, Del/T790M
Sequence of BaF3 cell lines stably transfected with kinase EGFR Del/T790M (P00533 with tags, fused parts or gaps DEL746-750/T790M, form open): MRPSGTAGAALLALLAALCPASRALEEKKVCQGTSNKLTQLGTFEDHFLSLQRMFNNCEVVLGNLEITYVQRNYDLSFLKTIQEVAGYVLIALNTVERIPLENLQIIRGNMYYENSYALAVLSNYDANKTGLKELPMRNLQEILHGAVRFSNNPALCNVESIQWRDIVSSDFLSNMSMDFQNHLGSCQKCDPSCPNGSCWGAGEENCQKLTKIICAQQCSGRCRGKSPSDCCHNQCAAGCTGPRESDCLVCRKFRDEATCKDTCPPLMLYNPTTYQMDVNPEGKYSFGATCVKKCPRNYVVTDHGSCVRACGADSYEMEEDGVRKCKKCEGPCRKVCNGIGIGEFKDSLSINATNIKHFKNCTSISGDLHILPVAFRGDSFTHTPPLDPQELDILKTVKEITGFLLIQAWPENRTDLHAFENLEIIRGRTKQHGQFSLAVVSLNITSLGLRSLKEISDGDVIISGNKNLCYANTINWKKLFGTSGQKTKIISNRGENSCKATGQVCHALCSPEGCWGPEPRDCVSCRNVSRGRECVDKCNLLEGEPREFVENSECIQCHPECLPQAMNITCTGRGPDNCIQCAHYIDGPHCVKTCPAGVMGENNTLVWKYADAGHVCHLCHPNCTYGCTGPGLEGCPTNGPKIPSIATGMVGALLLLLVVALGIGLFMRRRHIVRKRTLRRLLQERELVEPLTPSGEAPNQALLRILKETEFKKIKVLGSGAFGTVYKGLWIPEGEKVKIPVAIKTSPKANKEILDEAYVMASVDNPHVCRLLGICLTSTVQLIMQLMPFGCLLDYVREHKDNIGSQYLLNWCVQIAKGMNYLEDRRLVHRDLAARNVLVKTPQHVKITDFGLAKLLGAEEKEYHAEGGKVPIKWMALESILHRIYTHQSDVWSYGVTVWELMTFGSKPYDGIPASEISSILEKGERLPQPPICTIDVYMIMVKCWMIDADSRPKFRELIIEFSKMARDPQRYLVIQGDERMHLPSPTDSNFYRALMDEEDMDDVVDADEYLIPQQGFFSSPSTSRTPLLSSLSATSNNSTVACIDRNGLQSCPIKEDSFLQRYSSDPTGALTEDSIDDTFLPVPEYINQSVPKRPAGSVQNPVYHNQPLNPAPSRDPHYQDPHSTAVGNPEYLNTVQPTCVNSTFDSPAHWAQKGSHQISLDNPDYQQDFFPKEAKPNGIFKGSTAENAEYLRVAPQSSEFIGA
Procedure, shortened: (§1)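 Compounds tested at 8 concentrations, top 10 μM with stepwise ⅓ dilution, 0.1% DMSO, for 48 h at 37 °C, 5% CO2. MTS/PES reagent then added for 1-4 h and OD read at 490 nm. Inhibition calculated against DMSO and cell-free blank controls; IC50 fitted from inhibition rates.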

[2] = target: BaF3 cell lines stably transfected with kinase EGFR L858R (Homo sapiens, UniProt P00533, L858R, cells depend on it); test: Growth inhibition of BaF3 cell line stably transfected with kinase EGFR L858R (MTS); conditions: 48 h, read-out: growth inhibitory activity IC50, L858R
Procedure, shortened: as §1

[3] = target: BaF3 cell lines stably transfected with kinase EGFR L858R/T790M (Homo sapiens, UniProt P00533, T790M/L858R, cells depend on it); test: Growth inhibition of BaF3 cell line stably transfected with kinase EGFR L858R/T790M (MTS); conditions: 48 h, read-out: growth inhibitory activity IC50, L858R/T790M
Procedure, shortened: as §1

[4] = target: BaF3 cell lines stably transfected with kinase EGFR Del (Homo sapiens, UniProt P00533, cells depend on it, form not given); test: Growth inhibition of BaF3 cell line stably transfected with kinase EGFR Del (MTS); conditions: 48 h, read-out: growth inhibitory activity IC50, Del
Sequence of BaF3 cell lines stably transfected with kinase EGFR Del (P00533 with tags, fused parts or gaps DEL746-750): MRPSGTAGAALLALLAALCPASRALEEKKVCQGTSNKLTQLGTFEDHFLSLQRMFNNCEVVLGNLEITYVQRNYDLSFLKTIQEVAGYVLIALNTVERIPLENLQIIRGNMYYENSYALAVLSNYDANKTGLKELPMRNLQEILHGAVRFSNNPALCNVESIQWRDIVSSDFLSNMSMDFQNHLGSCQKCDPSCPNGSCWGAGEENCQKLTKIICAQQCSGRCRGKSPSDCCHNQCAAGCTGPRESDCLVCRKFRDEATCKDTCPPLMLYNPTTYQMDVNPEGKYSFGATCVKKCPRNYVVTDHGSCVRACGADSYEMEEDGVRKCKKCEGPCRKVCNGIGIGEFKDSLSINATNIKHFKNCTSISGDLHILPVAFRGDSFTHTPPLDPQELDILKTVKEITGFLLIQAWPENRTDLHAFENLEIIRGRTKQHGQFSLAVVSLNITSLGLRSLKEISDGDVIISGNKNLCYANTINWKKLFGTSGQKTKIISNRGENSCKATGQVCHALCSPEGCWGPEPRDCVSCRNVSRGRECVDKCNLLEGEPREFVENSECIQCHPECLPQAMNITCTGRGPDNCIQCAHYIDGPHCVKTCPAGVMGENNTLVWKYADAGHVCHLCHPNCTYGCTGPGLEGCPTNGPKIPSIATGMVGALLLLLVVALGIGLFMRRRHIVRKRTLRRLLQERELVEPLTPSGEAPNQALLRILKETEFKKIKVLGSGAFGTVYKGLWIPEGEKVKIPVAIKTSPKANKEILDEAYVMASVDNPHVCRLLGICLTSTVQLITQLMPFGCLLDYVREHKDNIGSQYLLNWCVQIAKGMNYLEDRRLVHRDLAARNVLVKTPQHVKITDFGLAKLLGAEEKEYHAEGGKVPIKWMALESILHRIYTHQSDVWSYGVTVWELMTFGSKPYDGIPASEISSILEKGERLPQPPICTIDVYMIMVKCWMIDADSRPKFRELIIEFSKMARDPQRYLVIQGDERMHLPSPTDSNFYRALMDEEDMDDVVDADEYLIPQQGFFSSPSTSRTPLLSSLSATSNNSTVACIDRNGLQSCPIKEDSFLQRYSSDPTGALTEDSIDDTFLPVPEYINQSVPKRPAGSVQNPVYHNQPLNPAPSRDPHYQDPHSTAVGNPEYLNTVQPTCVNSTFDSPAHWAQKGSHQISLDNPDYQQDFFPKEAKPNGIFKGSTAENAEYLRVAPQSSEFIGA
Procedure, shortened: as §1

[5] = target: BaF3 cell lines stably transfected with kinase EGFR L858R/T790M/C797S (Homo sapiens, UniProt P00533, T790M/C797S/L858R, cells depend on it); test: Growth inhibition of BaF3 cell line stably transfected with kinase EGFR L858R/T790M/C797S (MTS); conditions: 48 h, read-out: growth inhibitory activity IC50, L858R/T790M/C797S
Sequence of BaF3 cell lines stably transfected with kinase EGFR L858R/T790M/C797S (P00533 whole entry T790M/C797S/L858R): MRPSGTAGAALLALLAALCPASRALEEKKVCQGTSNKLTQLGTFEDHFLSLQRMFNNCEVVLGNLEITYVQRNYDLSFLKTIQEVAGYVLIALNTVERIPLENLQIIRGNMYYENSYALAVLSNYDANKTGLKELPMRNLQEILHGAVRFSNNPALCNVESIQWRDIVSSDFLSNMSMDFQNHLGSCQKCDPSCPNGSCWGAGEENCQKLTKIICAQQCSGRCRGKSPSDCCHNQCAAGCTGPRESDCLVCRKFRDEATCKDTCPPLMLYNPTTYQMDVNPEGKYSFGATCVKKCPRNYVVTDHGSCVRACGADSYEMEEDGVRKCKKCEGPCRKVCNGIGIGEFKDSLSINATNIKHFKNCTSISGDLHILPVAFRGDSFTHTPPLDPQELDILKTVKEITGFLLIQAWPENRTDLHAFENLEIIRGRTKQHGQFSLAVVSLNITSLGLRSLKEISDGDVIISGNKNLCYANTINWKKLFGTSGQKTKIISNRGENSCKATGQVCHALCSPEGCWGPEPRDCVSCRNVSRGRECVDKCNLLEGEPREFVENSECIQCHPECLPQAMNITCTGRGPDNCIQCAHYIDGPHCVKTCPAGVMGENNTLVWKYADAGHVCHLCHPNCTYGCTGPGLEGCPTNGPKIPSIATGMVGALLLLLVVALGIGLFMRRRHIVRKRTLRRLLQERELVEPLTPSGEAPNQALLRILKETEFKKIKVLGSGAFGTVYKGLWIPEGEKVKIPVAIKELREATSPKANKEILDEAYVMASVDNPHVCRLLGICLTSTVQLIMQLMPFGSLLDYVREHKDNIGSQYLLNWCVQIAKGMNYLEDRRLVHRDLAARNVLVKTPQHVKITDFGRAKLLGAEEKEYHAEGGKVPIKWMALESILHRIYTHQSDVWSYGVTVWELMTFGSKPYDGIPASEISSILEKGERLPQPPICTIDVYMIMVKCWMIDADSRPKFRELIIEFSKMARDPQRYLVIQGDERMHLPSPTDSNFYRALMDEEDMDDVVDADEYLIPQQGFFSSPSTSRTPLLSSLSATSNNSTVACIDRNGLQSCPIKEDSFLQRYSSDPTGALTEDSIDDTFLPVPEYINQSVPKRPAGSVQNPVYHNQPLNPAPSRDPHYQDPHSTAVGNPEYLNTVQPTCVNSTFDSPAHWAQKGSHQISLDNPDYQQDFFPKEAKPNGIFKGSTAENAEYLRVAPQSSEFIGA
Procedure, shortened: as §1

[6] = target: BaF3 cell lines stably transfected with kinase EGFR Del/T790M/C797S (Homo sapiens, UniProt P00533, T790M/C797S, cells depend on it, form not given); test: Growth inhibition of BaF3 cell line stably transfected with kinase EGFR Del/T790M/C797S (MTS); conditions: 48 h, read-out: growth inhibitory activity IC50, Del/T790M/C797S
Sequence of BaF3 cell lines stably transfected with kinase EGFR Del/T790M/C797S (P00533 with tags, fused parts or gaps DEL746-750/T790M/C797S, form open): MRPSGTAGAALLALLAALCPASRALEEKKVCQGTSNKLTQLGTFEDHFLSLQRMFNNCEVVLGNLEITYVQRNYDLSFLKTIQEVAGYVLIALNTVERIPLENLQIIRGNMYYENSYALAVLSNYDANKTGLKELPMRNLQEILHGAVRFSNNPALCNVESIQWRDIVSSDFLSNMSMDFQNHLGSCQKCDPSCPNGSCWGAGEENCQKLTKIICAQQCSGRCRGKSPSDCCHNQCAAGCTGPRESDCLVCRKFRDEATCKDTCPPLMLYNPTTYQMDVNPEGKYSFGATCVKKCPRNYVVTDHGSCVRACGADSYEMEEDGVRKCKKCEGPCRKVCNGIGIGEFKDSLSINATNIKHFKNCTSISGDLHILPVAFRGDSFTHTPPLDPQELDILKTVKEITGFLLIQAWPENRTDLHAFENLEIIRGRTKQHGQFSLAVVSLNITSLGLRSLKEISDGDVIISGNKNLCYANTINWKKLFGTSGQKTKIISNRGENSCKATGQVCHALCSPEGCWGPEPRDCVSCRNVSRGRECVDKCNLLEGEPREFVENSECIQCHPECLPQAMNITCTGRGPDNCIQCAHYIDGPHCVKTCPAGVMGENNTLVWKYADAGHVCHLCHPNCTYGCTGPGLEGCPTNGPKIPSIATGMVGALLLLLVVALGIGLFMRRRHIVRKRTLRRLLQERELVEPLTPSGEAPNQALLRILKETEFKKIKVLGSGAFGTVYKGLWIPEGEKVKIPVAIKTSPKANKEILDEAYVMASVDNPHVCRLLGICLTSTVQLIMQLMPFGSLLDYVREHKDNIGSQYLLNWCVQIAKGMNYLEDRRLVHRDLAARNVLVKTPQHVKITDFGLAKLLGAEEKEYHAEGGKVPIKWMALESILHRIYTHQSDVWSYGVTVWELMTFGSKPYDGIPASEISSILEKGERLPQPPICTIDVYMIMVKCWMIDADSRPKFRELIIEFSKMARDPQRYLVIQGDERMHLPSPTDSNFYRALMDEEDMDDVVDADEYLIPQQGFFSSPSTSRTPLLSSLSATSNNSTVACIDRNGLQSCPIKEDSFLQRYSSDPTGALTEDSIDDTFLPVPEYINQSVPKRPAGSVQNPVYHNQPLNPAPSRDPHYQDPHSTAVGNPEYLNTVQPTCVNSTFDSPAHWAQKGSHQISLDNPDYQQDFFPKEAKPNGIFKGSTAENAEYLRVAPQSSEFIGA
Procedure, shortened: as §1

Row | GI50 [1] [nM] | GI50 [2] [nM] | GI50 [3] [nM] | GI50 [4] [nM] | GI50 [5] [nM] | GI50 [6] [nM] | Structure (SMILES)
1 | 50 to 500 | 50 to 500 | 50 to 500 | 50 to 500 | 50 to 500 | 500 to 2500 | C=Cc1cnc(Nc2cc(C)c(N3CCC(N4CCN(C)CC4)CC3)cc2OC)nc1Nc1ccc2nccnc2c1S(=O)(=O)C(C)C [III-19]
2 | 50 to 500 | 50 to 500 | 50 to 500 | 50 to 500 | 50 to 500 | 50 to 500 | C=Cc1cnc(Nc2cc(CC)c(N3CCC(N(C)C)CC3)cc2OC)nc1Nc1ccc2nccnc2c1S(=O)(=O)NC [IV-13]
3 | 50 to 500 | 500 to 2500 | 500 to 2500 | 50 to 500 | 50 to 500 | 50 to 500 | C=Cc1cnc(Nc2ccc(N3CCC(N4CCN(C)CC4)CC3)cc2OC)nc1Nc1ccc2nccnc2c1N(C)S(C)(=O)=O [II-16]
4 | 50 to 500 | 50 to 500 | ≤ 50 | 50 to 500 | 50 to 500 | 50 to 500 | C=Cc1cnc(Nc2ccc(N3CCC(N4CCN(C)CC4)CC3)c(F)c2F)nc1Nc1ccc2nccnc2c1S(=O)(=O)NC [IV-10]
5 | ≤ 50 | ≤ 50 | ≤ 50 | ≤ 50 | ≤ 50 | ≤ 50 | C=Cc1cnc(Nc2cc(CC)c(N3CCN(C)CC3)cc2OC)nc1Nc1ccc2nccnc2c1N(C)S(C)(=O)=O [II-4]
6 | 500 to 2500 | 500 to 2500 | 500 to 2500 | 500 to 2500 | 500 to 2500 | 50 to 500 | C=Cc1cnc(Nc2cnn(CC)c2)nc1Nc1ccc2nccnc2c1N(C)S(C)(=O)=O [II-66]
7 | 500 to 2500 | 500 to 2500 | 50 to 500 | 500 to 2500 | 500 to 2500 | 500 to 2500 | C=Cc1cnc(Nc2cc(C)c(N3CCC(N4CCN(C)CC4)CC3)cc2OC)nc1Nc1ccc2nccnc2c1S(C)(=O)=O [III-9]
8 | 50 to 500 | 500 to 2500 | 500 to 2500 | 500 to 2500 | 500 to 2500 | 500 to 2500 | C=Cc1cnc(Nc2cc(F)c(N3CCC(N4CCN(C)CC4)CC3)c(F)c2)nc1Nc1ccc2nccnc2c1S(C)(=O)=O [III-16]
9 | 50 to 500 | 50 to 500 | 50 to 500 | 50 to 500 | 500 to 2500 | 500 to 2500 | C=Cc1cnc(Nc2cc(CC)c(N3CCC(N4CCN(C)CC4)CC3)cc2OC)nc1Nc1ccc2nccnc2c1S(=O)(=O)NC(C)C [IV-18]
10 | ≤ 50 | 50 to 500 | ≤ 50 | 50 to 500 | 50 to 500 | 50 to 500 | C=Cc1cnc(Nc2cc(CC)c(N3CCC(N4CCN(C)CC4)CC3)nc2OC)nc1Nc1ccc2nccnc2c1N(C)S(C)(=O)=O [II-5]
11 | 500 to 2500 | 50 to 500 | 50 to 500 | 50 to 500 | ≤ 50 | 50 to 500 | C=Cc1cnc(Nc2cc3c(cc2C)CCN(C)C3)nc1Nc1ccc2nccnc2c1N(C)S(C)(=O)=O [II-72]
12 | ≤ 50 | ≤ 50 | ≤ 50 | ≤ 50 | ≤ 50 | ≤ 50 | C=Cc1cnc(Nc2cc(CC)c(N3CCC(N(C)C)CC3)cc2OC)nc1Nc1ccc2nccnc2c1N(C)S(C)(=O)=O [II-2]
13 | 50 to 500 | 50 to 500 | 50 to 500 | 50 to 500 | 50 to 500 | 50 to 500 | C=Cc1cnc(Nc2cc(CC)c(N3CCC(N4CCN(C)CC4)CC3)cc2OC)nc1Nc1ccc2nccnc2c1S(=O)(=O)NC [IV-3]
14 | 500 to 2500 | 500 to 2500 | 500 to 2500 | 50 to 500 | 500 to 2500 | 500 to 2500 | C=Cc1cnc(Nc2cc[nH]n2)nc1Nc1ccc2nccnc2c1N(C)S(C)(=O)=O [II-59]
15 | 50 to 500 | ≤ 50 | 50 to 500 | 50 to 500 | 50 to 500 | 50 to 500 | C=Cc1cnc(Nc2cc3c(cc2F)CCN(C)C3)nc1Nc1ccc2nccnc2c1N(C)S(C)(=O)=O [II-74]
16 | ≤ 50 | ≤ 50 | ≤ 50 | ≤ 50 | 50 to 500 | 50 to 500 | C=C(C)c1cnc(Nc2ccc(N3CCC(N4CCN(C)CC4)CC3)c(CC)c2)nc1Nc1ccc2nccnc2c1N(C)S(C)(=O)=O [II-24]
17 | 500 to 2500 | 500 to 2500 | 500 to 2500 | 500 to 2500 | 50 to 500 | 500 to 2500 | C=Cc1cnc(Nc2ccc(N3CCC(N4CCN(C)CC4)CC3)cc2OC)nc1Nc1ccc2nccnc2c1NS(=O)(=O)C(C)C [II-42]
18 | 500 to 2500 | 50 to 500 | 500 to 2500 | 50 to 500 | 500 to 2500 | 500 to 2500 | CCc1cc(Nc2ncc(/C=C/c3ccccc3)c(Nc3ccc4nccnc4c3N(C)S(C)(=O)=O)n2)c(OC)cc1N1CCC(N2CCN(C)CC2)CC1 [II-29]
19 | 50 to 500 | 50 to 500 | 50 to 500 | 50 to 500 | 50 to 500 | 50 to 500 | C=Cc1cnc(Nc2cc(CC)c(N3CCC4(CC3)CC(N(C)C)C4)cc2OC)nc1Nc1ccc2nccnc2c1N(C)S(C)(=O)=O [II-55]
20 | 50 to 500 | 500 to 2500 | 50 to 500 | 50 to 500 | 50 to 500 | 50 to 500 | C=Cc1cnc(Nc2cc(CC)n(C)n2)nc1Nc1ccc2nccnc2c1N(C)S(C)(=O)=O [II-63]
21 | 50 to 500 | 50 to 500 | 50 to 500 | 500 to 2500 | 500 to 2500 | 500 to 2500 | C=C(C)c1cnc(Nc2cc(C)c(N3CCC(N4CCN(C)CC4)CC3)nc2OC)nc1Nc1ccc2nccnc2c1P(C)(C)=O [Compound I-20]
22 | 500 to 2500 | 500 to 2500 | 50 to 500 | 500 to 2500 | 500 to 2500 | 500 to 2500 | C=Cc1cnc(Nc2cc(CC)c(N3CCN(C)CC3)cc2OC)nc1Nc1ccc2nccnc2c1S(C)(=O)=O [III-4]
23 | 50 to 500 | 50 to 500 | ≤ 50 | 50 to 500 | 50 to 500 | ≤ 50 | C=C(C)c1cnc(Nc2cn[nH]c2)nc1Nc1ccc2nccnc2c1N(C)S(C)(=O)=O [II-70]
24 | 500 to 2500 | 500 to 2500 | 50 to 500 | 500 to 2500 | 500 to 2500 | 500 to 2500 | C=Cc1cnc(Nc2cc(CC)c(N3CCC(N4CCN(C)CC4)CC3)nc2OC)nc1Nc1ccc2nccnc2c1S(C)(=O)=O [III-10]
25 | 50 to 500 | 50 to 500 | ≤ 50 | ≤ 50 | 50 to 500 | 500 to 2500 | C=C(C)c1cnc(Nc2ccc(N3CCC(N4CCN(C)CC4)CC3)nc2OC)nc1Nc1ccc2nccnc2c1P(C)(C)=O [Compound I-19]
26 | 500 to 2500 | 50 to 500 | 500 to 2500 | 50 to 500 | 50 to 500 | 50 to 500 | C=Cc1cnc(Nc2ccn(CC)n2)nc1Nc1ccc2nccnc2c1N(C)S(C)(=O)=O [II-60]
27 | 50 to 500 | 500 to 2500 | 50 to 500 | 500 to 2500 | 500 to 2500 | 500 to 2500 | C=Cc1cnc(Nc2cc(C(C)C)c(N3CCC(N4CCN(C)CC4)CC3)cc2OC)nc1Nc1ccc2nccnc2c1S(=O)(=O)NC [IV-6]
